{
  "source": "ChEMBL document CHEMBL1155799",
  "about": "(Bioorg Med Chem, 2008)",
  "key": {"[1]": {"molecular_target": "5-hydroxytryptamine receptor 2A (Homo sapiens, UniProt P28223)", "sequence (P28223 whole entry)": "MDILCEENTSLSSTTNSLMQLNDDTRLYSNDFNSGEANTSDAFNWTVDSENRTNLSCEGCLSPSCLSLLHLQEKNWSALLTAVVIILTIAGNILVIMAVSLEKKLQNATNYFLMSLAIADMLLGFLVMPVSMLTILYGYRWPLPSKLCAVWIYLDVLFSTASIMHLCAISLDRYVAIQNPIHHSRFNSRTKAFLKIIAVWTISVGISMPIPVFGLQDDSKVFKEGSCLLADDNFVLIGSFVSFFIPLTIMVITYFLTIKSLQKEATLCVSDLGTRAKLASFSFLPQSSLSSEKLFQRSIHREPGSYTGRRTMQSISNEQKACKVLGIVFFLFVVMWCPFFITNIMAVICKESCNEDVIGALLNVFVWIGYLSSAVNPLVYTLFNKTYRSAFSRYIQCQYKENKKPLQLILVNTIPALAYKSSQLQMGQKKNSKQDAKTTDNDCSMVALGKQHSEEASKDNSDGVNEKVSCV", "description": "Binding affinity to human cloned 5HT2A receptor"}, "[2]": {"molecular_target": "T1, 5-hydroxytryptamine receptor 2C (Homo sapiens, UniProt P28335)", "T1 sequence (P28335 whole entry)": "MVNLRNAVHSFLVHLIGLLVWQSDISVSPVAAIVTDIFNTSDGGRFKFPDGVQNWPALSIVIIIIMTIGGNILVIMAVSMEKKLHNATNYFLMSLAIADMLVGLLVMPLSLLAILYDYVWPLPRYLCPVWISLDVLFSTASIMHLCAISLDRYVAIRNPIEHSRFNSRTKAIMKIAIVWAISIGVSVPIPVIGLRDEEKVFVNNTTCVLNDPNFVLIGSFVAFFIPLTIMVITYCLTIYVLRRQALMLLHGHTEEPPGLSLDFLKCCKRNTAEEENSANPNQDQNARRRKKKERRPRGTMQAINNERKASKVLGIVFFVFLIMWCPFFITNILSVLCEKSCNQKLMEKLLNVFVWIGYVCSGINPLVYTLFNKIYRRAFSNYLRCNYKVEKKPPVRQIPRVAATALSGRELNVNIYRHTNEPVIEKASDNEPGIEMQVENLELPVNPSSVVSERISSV", "description": "Binding affinity to human cloned 5HT2C receptor"}, "[3]": {"molecular_target": "T2, 5-hydroxytryptamine receptor 1A (Homo sapiens, UniProt P08908)", "T2 sequence (P08908 whole entry)": "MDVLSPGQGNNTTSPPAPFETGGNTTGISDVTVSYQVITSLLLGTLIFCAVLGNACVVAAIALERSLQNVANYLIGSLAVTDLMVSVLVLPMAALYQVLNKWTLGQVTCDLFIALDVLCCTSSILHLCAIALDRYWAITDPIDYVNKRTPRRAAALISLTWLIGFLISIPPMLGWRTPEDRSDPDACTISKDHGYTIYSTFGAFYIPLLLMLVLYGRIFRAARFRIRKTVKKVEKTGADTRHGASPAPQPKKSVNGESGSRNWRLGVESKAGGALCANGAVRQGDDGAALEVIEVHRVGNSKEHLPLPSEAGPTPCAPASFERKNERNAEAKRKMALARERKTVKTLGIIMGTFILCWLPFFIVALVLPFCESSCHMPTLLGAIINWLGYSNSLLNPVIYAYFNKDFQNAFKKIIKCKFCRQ", "description": "Binding affinity to human cloned 5HT1A receptor"}, "[4]": {"molecular_target": "5-hydroxytryptamine receptor 2B (Homo sapiens, UniProt P41595)", "sequence (P41595 whole entry)": "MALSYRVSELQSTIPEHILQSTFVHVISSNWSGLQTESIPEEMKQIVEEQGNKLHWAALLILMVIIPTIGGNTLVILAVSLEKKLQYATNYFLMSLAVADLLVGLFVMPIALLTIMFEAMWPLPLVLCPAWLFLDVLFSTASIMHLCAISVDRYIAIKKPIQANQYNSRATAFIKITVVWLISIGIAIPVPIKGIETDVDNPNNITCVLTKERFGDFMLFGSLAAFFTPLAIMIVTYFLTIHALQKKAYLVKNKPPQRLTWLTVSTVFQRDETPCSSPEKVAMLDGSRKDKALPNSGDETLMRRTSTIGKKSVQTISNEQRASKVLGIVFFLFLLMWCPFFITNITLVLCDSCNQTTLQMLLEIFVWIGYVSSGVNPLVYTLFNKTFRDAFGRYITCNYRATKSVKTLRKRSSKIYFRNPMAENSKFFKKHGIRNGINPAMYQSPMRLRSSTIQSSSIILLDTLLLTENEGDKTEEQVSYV", "description": "Binding affinity to human cloned 5HT2B receptor"}, "Mus musculus": {"species_on_record": "Mus musculus", "test": "animal or person", "assay_type": "functional", "conditions": "Swiss Webster, 0.5 h", "description": "Blockade of apomorphine-induced climbing stereotypy in Swiss Webster mouse after 30 mins"}, "[5]": {"molecular_target": "5-hydroxytryptamine receptor 6 (Homo sapiens, UniProt P50406)", "sequence (P50406 whole entry)": "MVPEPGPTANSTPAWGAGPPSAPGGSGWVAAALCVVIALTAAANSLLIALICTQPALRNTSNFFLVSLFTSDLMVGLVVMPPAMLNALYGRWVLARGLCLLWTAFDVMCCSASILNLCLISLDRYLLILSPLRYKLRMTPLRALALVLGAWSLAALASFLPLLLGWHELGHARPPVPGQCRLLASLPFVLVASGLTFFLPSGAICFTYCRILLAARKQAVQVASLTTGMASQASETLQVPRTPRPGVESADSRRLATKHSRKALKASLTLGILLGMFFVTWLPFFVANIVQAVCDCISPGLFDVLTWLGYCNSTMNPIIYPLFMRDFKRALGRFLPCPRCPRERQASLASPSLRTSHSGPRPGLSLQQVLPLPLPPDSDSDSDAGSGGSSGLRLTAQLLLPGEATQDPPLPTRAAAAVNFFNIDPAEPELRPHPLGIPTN", "description": "Binding affinity to human cloned 5HT6 receptor"}, "[6]": {"molecular_target": "Sodium-dependent dopamine transporter (Homo sapiens, UniProt Q01959)", "sequence (Q01959 whole entry)": "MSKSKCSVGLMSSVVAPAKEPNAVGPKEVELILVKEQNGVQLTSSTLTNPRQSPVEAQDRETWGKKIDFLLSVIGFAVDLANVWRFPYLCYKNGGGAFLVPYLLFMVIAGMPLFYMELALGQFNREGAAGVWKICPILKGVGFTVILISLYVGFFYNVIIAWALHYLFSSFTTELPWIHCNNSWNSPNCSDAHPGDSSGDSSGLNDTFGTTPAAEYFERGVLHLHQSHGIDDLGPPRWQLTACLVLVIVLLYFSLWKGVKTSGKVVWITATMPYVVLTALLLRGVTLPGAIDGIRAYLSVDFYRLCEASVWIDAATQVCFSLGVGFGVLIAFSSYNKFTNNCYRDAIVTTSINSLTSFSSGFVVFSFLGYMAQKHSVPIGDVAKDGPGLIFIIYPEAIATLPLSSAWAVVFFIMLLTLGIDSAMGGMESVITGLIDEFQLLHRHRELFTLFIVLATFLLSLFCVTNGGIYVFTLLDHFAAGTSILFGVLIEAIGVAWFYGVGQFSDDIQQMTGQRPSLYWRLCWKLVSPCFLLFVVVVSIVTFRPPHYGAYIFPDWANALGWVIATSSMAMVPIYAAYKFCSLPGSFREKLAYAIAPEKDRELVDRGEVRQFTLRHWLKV", "description": "Binding affinity to human DAT"}, "D(4) dopamine receptor": {"molecular_target": "T3, D(4) dopamine receptor (Homo sapiens, UniProt P21917)", "T3 sequence (P21917 whole entry)": "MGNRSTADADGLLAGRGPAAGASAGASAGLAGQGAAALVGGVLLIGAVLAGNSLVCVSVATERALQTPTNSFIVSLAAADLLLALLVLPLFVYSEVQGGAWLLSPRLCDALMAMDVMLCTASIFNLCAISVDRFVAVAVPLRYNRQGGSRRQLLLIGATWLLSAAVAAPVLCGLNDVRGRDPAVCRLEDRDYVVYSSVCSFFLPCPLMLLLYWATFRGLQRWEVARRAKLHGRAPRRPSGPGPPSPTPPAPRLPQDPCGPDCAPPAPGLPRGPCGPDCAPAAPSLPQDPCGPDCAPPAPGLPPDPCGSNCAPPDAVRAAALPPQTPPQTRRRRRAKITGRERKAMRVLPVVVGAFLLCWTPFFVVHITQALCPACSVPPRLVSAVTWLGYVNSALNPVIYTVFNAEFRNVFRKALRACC", "description": "Binding affinity to human cloned dopamine D4 receptor"}, "D(3) dopamine receptor": {"molecular_target": "D(3) dopamine receptor (Homo sapiens, UniProt P35462)", "sequence (P35462 whole entry)": "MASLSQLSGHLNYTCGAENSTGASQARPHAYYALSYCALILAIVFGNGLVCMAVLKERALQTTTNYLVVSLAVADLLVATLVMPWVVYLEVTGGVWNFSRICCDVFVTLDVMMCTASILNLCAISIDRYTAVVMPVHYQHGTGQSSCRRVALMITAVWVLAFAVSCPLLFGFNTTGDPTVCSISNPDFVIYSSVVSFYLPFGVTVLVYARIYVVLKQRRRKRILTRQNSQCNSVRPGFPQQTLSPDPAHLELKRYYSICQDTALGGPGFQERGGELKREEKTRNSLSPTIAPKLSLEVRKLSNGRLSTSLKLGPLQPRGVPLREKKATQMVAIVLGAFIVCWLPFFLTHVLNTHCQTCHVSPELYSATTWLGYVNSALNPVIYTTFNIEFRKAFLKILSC", "description": "Binding affinity to human cloned dopamine D3 receptor"}, "[7]": {"molecular_target": "T4, Muscarinic acetylcholine receptor M1 (Homo sapiens, UniProt P11229)", "T4 sequence (P11229 whole entry)": "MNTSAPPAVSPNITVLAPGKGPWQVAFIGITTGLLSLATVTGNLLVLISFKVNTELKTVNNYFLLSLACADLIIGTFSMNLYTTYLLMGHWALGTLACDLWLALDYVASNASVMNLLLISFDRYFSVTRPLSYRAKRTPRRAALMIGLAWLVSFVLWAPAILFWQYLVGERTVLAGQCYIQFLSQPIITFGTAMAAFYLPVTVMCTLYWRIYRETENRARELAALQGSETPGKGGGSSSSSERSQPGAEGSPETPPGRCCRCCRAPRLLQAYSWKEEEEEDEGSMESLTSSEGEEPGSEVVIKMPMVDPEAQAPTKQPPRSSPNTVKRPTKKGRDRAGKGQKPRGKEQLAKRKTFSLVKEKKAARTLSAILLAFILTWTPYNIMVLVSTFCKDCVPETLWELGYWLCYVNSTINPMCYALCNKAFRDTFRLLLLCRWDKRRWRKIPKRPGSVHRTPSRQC", "description": "Binding affinity to human cloned muscarinic M1 receptor"}},
  "note": "pKi: −log10 of the molar value.",
  "data": [
    {"smiles": "O=C(CCCN1C2CCC1CC(c1ccccc1)C2)c1ccc(F)cc1", "note": "(stereo not given)", "values": [
      {"measurement": "pKi", "setting": "[1]", "value": 6.97},
      {"measurement": "pKi", "setting": "[2]", "value": 5.97},
      {"measurement": "pKi", "setting": "[3]", "value": 6.38}
    ]},
    {"smiles": "O=C(CCCN1CCCN(c2ccc(Cl)cc2)CC1)c1ccc(F)cc1", "values": [
      {"measurement": "pKi", "setting": "[4]", "value": 6.31},
      {"measurement": "ED50", "setting": "Mus musculus", "value": 35.8, "unit": "µmol/kg"},
      {"measurement": "pKi", "setting": "[5]", "value": 6.53},
      {"measurement": "pKi", "setting": "[6]", "value": 5.94}
    ]},
    {"smiles": "O=C(CCCN1CC2CCC(C1)N2c1ccccc1)c1ccc(F)cc1", "values": [
      {"measurement": "pKi", "setting": "D(4) dopamine receptor", "value": 5.68},
      {"measurement": "pKi", "setting": "D(3) dopamine receptor", "value": 6.22}
    ]},
    {"smiles": "O=C(CCCN1CC2CC1CN2c1ccc(Cl)cc1)c1ccc(F)cc1", "note": "(stereo not given)", "values": [
      {"measurement": "pKi", "setting": "D(4) dopamine receptor", "value": 6.28},
      {"measurement": "pKi", "setting": "D(3) dopamine receptor", "value": 6.66}
    ]},
    {"smiles": "O=C(CCCN1CCN(c2ccc(Cl)cc2)CC1)c1ccc(F)cc1", "values": [
      {"measurement": "pKi", "setting": "[2]", "value": 5.45},
      {"measurement": "pKi", "setting": "[3]", "value": 7.04}
    ]},
    {"smiles": "O=C(CCCN1C2CCC1CC(O)(c1ccccc1)C2)c1ccc(F)cc1", "note": "(stereo not given)", "values": [
      {"measurement": "pKi", "setting": "[1]", "value": 7.91},
      {"measurement": "pKi", "setting": "[2]", "value": "< 5.00"},
      {"measurement": "pKi", "setting": "[3]", "value": 7.42}
    ]},
    {"smiles": "O=C(CCCN1CCC(O)(c2ccc(Cl)cc2)C1)c1ccc(F)cc1", "note": "(single isomer, unassigned; (+))", "values": [
      {"measurement": "pKi", "setting": "[3]", "value": 6.11}
    ]},
    {"smiles": "O=C1Cc2cc(CCN3CCN(c4nsc5ccccc45)CC3)c(Cl)cc2N1", "note": "[ZIPRASIDONE]", "values": [
      {"measurement": "pKi", "setting": "[7]", "value": 5.29},
      {"measurement": "pKi", "setting": "[5]", "value": 7.12},
      {"measurement": "pKi", "setting": "[3]", "value": 8.60}
    ]}
  ]
}
